Reference: patent US9617311B2, “Use of PEDF-derived polypeptides for promoting stem cells proliferation and wound healing” (Mackay Memorial Hospital, priority 2011, dated 2017)

Legend:
LSCs in the limbus [1] = assay: Limbal epithelium thickness and ΔNp63α-positive LSC level on day 5 post corneal wounding; assay type: in vivo, C57BL/6 mice; conditions: day 5 post-wounding; for thickness of the limbus / limbal epithelia: compared with normal unwounded eye; for levels of ΔNp63α-positive LSCs in limbus: control ointment 38.9±2.8%, normal unwounded eye 74.8±6.3%
From the text: FIG. 4A provides histologic photographs (left panels, Hematoxylin and Eosin (H&E) staining, magnification, ×400), immunofluorescence microscopy photographs (middle panels, magnification, ×1000), and merged photographs (right panels); together, they illustrate layers of stratified limbal epithelium of mice at day 5 post-corneal injury according to the previous example of the present disclosure. […] Normal indicates uninjured eye. Cornea of normal eye that has no ΔNp63α-positive cell acted as ΔNp63α negative immunostaining control. FIG. 4B is a histogram illustrating levels of ΔNp63α-positive cells at limbus. Results of immunofluorescence were evaluated from 6 sections per mouse cornea, and 6 mice at each treatment. A labeling index was computed as the number of labeled cells divided by the total number of cells observed by a Hoechst 33258 fluorescent nuclear stain. P<0.005 versus control eye.
(§1) De-paraffinized tissue sections or 4% paraformaldehyde-fixed LSCs were blocked with 10% goat serum and 5% BSA in PBST (PBS containing 0.1% Tween-20) for 1 hour. Staining was done using primary antibodies against ΔNp63α (1:150 dilution), BrdU (1:250 dilution), and keratin-3 (1:250 dilution) at 37° C. for 2 hours, followed by incubation with the appropriate rhodamine- or FITC-conjugated donkey IgG (1:500 dilution) for 1 hour at RT. Nuclei were identified by counterstaining with Hoechst 33258 for 7 minutes. Images were captured using a Zeiss epifluorescence microscope with a CCD camera and photographs were taken by using the Axiovert software.
The experiments were performed using eight-week-old female C57BL/6 mice, and the procedures were approved by the Mackay Memorial Hospital Review Board for animal investigation. Animals were anesthetized by an intraperitoneal injection of a mixture of zoletil (6 mg/kg) and xylazine (3 mg/kg). One filter paper (0.9 mm diameter) soaked with 20% ethanol was placed on the central cornea of right eye for one minute and then irrigated extensively with PBS. Subsequently, mechanical epithelial scrape was performed using a punch under a dissection microscope to create a circular injury (2 mm diameter) at the entire corneal region of the mouse eye without encroaching the corneal stroma, limbus or conjunctiva.
Each synthetic peptide (the 39-mer, 34-mer, 29-mer, 25-mer, 20-mer, 18-mer, Mo 29-mer or Mo 20-mer) was reconstituted in DMSO as stock (5 mM) and mixed with TOBREX® eye ointment (Alcon; containing 0.3% Tobramycin and 0.5% Chlorobutanol) to a concentration 50 μM. In each of the treatment group (n=6-10), the right eye was treated with 20 μl eye ointment containing the synthetic peptide once a day after the scrape injury. In the control group (n=20), right eye was treated with 20 μl of eye ointment mixed with vehicle DMSO. Wound size was determined by staining with topical fluorescein (Fluor-I-Strip, Ayerst Laboratories, Philadelphia, Pa.) and photographed with a digital camera. The area of defect was quantified from the photographs using a computer-assisted image analyzer (Adobe Photoshop CS3 10.0) and was calculated as the percentage of residual epithelial defect at each time point/initial wound area.
On average, the levels of ΔNp63α-positive LSCs in limbus of normal unwounded eye is 74.8±6.3%; whereas the levels of ΔNp63α-positive LSCs in corneal wounded eyes treated with control, 29-mer, 20-mer, 18-mer and Mo 20-mer ointment were 38.9±2.8%, 77.0±4.1%, 73.1±8.6%, 39.4±2.6%, and 76.3±6.2% respectively (FIG. 4B). Taken together, 29-mer or 20-mer treatment can activate LSCs in vivo coincidently with more prominent corneal re-epithelialization than corneal regeneration by native progress.

[2] = test system: limbal epithelial stem cells (LSCs); assay: In vitro LSC proliferation, BrdU pulse-labeling with ΔNp63α immunostaining; assay type: cell-based, New Zealand white rabbits; conditions: BrdU 2 hours; for percentage of BrdU and ΔNp63α-double positive cells per total ΔNp63α-positive cells: 25 nM peptide or 4.5 nM PEDF in medium, control medium 3.0±0.5%, mean±SEM
From the text: LSCs were isolated from six-month-old New Zealand white rabbits and used for cell-suspension culture in accordance with the method previously described by Cheng et al. (The growth-promoting effect of KGF on limbal epithelial cells is mediated by upregulation of DeltaNp63alpha through the p38 pathway. J Cell Sci 2009; 122 (Pt 24): 4473-4480) and Wang et al. (Importin 13 serves as a potential marker for corneal epithelial progenitor cells. Stem Cells 2009; 27: 2516-2526) with a slight modification. Rabbit limbal tissues were washed in PBS containing 100 U/ml penicillin and 50 μg/ml gentamicin. After carefully removing the iris, and excessive sclera, the limbal rings were exposed to dispase II (1.2 IU/ml in Hanks' balanced salt solution free of Mg^2+ and Ca^2+) at 4° C. for 16 hours. The loosened epithelial sheets were removed with a cell scraper and separated into single cells by enzymatic digestion (0.05% trypsin, and 0.01% EDTA) for 15 min at 37° C. with gentle shaking and transferred to a stop medium (9 ml of HEPES-buffered DMEM containing 10% FBS). Cells were then collected by centrifugation (400×g for 5 min).
About 1×10^5 cells were seeded on each wells of a 6-well plate and incubated in a DMEM/Ham's F-12 basal medium (10 mM HEPES, 5 ng/ml human EGF, 1% SITE liquid medium, antibiotic-antimicotic solutions, 0.5% DMSO and 0.5 μg/ml hydrocortisone) supplemented with 10% FBS for 2 days, and then shifted to a basal medium or basal medium containing 4.5 nM PEDF, 25 nM 39-mer, 25 nM 34-mer, 25 nM 29-mer, 25 nM 25-mer, 25 nM 20-mer, 25 nM 18-mer, 25 nM Mo 29-mer or 25-nM Mo 20-mer. The cells were continued cultivated at 37° C. under 5% CO2 for another 3 days until they reached confluence (passage 0). LSCs were co-cultured with MMC-treated NIH-3T3 fibroblast feeder cells located within trans-well (0.4 μm pore, BD Biosciences, Bedford, Mass.). For passage purpose, near-confluent cells were harvested again by enzymatic treatment (i.e., 0.25% trypsin), and then 1×10^5 subcultured cells were further cultured in the respective medium, and proliferative capacity of cells was compared every 4 days after continuously culture-subculture (passage).
as §1
2×10^5 limbal cells (the 1st passage) were seeded at a slide coated with FNC COATING MIX® solution (Athena Enzyme Systems, Baltimore, Md.) and incubated with a culture medium for one day. BrdU (final, 10 μM) was added to the culture for 2 hours. After being fixed with 4% paraformaldehyde, cells were exposed to cold methanol for 2 minutes, and then treated with 1 N HCl at RT for 1 hour before performing immunofluorescence. For animal study, BrdU was reconstituted in DMSO as stock (80 mM). 10 μl of BrdU mixed with 90 μl of PBS was intraperitoneally injected into mouse 3 hours prior to euthanasia. DNA synthesis was assessed by BrdU labeling with anti-BrdU antibodies.

LSCs in the limbus [3] = assay: In vivo LSC proliferation in limbus 24 hours after corneal wounding, BrdU/ΔNp63α double-immunostaining; set-up: species or system C57BL/6 mice; conditions: peptide eye ointment, control 15.0±7.6%
Protocol: as §1
2×10^5 limbal cells (the 1st passage) were seeded at a slide coated with FNC COATING MIX® solution (Athena Enzyme Systems, Baltimore, Md.) and incubated with a culture medium for one day. BrdU (final, 10 μM) was added to the culture for 2 hours. […] DNA synthesis was assessed by BrdU labeling with anti-BrdU antibodies. […]
Each synthetic peptide (the 39-mer, 34-mer, 29-mer, 25-mer, 20-mer, 18-mer, Mo 29-mer or Mo 20-mer) was reconstituted in DMSO as stock (5 mM) and mixed with TOBREX® eye ointment (Alcon; containing 0.3% Tobramycin and 0.5% Chlorobutanol) to a concentration 50 μM. […] Wound size was determined by staining with topical fluorescein (Fluor-I-Strip, Ayerst Laboratories, Philadelphia, Pa.) and photographed with a digital camera. […]

| Sequence | thickness of the limbus / limbal epithelia (LSCs in the limbus [1]) | levels of ΔNp63α-positive LSCs in limbus (LSCs in the limbus [1]) [%] | enhanced LSC proliferation versus control medium ([2]; 25 nM peptide in medium) | percentage of BrdU and ΔNp63α-double positive cells per total ΔNp63α-positive cells [2] [%] | levels of BrdU- and ΔNp63α-positive cells in the limbus (LSCs in the limbus [3]) [%] |
| --- | --- | --- | --- | --- | --- |
| EQRTESIIHRALYYDLIS [18-mer] | thinner | 39.4±2.6 | enhanced proliferation was not observed |  |  |
| SLGAEHRTESVIHRALYYDL [Mo 20-mer, synthetic peptide derived from mouse PEDF] | returned to full-thickness of stratified layers | 76.3±6.2 |  | 26.3±2.2 |  |
| SLGAEHRTESVIHRALYYDLITNPDIHST [Mo 29-mer, synthetic peptide derived from mouse PEDF] |  |  |  | 27.1±1.8 |  |
| SLGAEQRTESIIHRALYYDL [20-mer, synthetic peptide identical to residues 11-30 of the 39-mer] | returned to full-thickness of stratified layers | 73.1±8.6 |  | 31.8±1.7 | 42.4±4.3 |
| SLGAEQRTESIIHRALYYDLISSPDIHGT [29-mer, short synthetic PEDF peptide derived from the 39-mer] | returned to full-thickness of stratified layers | 77.0±4.1 |  | 33.9±2.6 | 43.2±4.6 |
